The supplement of paper PMC10307832

Assays:
Experiment in all cases: relative viability (nuclei count vs DMSO), 5 days (fraction); higher = more cells survive
Axitinib + Trametinib = compound: CNC(=O)c1ccccc1Sc1ccc2c(/C=C/c3ccccn3)n[nH]c2c1 [Axitinib] + CC(=O)Nc1cccc(-n2c(=O)n(C3CC3)c(=O)c3c(Nc4ccc(I)cc4F)n(C)c(=O)c(C)c32)c1 [Trametinib] (partner 0.02 µM)
How it was run: (§1)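 Dosing by pin tool came one day after lung cancer cell lines were seeded in 1536-well plates, using either one drug or a fixed anchor-drug dose plus five library-drug doses (not always all listed) in √10 steps. After 5 days, nuclei were counted on 4× images. Relative viability is treated-well nuclei count divided by vehicle-well nuclei count, and values are medians of duplicate plates.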

[1] = compound: CC1=CC=C(C=C1)C(=O)CN2C3=C(CCCC3)SC2=N [Pifithrin_alpha] + CC(=O)Nc1cccc(-n2c(=O)n(C3CC3)c(=O)c3c(Nc4ccc(I)cc4F)n(C)c(=O)c(C)c32)c1 [Trametinib] (partner 0.02 µM)
How it was run: as §1

Bemcentinib + Olaparib = compound: Nc1nc(Nc2ccc3c(c2)CC[C@@H](N2CCCC2)CC3)nn1-c1cc2c(nn1)-c1ccccc1CCC2 [Bemcentinib] + O=C(c1cc(Cc2n[nH]c(=O)c3ccccc23)ccc1F)N1CCN(C(=O)C2CC2)CC1 [Olaparib] (partner 8 µM)
How it was run: as §1

Bemcentinib + AZD7762 = compound: Nc1nc(Nc2ccc3c(c2)CC[C@@H](N2CCCC2)CC3)nn1-c1cc2c(nn1)-c1ccccc1CCC2 [Bemcentinib] + NC(=O)Nc1cc(-c2cccc(F)c2)sc1C(=O)N[C@H]1CCCNC1 [AZD7762] (partner 0.2 µM)
How it was run: as §1

Cell Line	relative viability (Axitinib + Trametinib; first compound 0.005 µM)	relative viability (Axitinib + Trametinib; first compound 0.01581 µM)	relative viability (Axitinib + Trametinib; first compound 0.05 µM)	relative viability (Axitinib + Trametinib; first compound 0.1581 µM)	relative viability (Axitinib + Trametinib; first compound 0.5 µM)	relative viability ([1]; first compound 1 µM)	relative viability ([1]; first compound 3.162 µM)	relative viability ([1]; first compound 10 µM)	relative viability ([1]; first compound 31.62 µM)	relative viability ([1]; first compound 100 µM)	relative viability (Bemcentinib + Olaparib; first compound 0.04 µM)	relative viability (Bemcentinib + Olaparib; first compound 0.1265 µM)	relative viability (Bemcentinib + Olaparib; first compound 0.4 µM)	relative viability (Bemcentinib + Olaparib; first compound 1.265 µM)	relative viability (Bemcentinib + Olaparib; first compound 4 µM)	relative viability (Bemcentinib + AZD7762; first compound 0.04 µM)	relative viability (Bemcentinib + AZD7762; first compound 0.1265 µM)	relative viability (Bemcentinib + AZD7762; first compound 0.4 µM)	relative viability (Bemcentinib + AZD7762; first compound 1.265 µM)	relative viability (Bemcentinib + AZD7762; first compound 4 µM)
NCI-H2087	0.206	0.182	0.196	0.21	0.242	0.178	0.196	0.169	0.183	0.165	0.638	0.65	0.616	0.614	0.644	1.4	1.41	1.42	1.49	1.47
NCI-H2126	0.536	0.612	0.578	0.603	0.545	0.456	0.503	0.487	0.445	0.452	0.999	0.931	0.948	1.01	0.916	1.05	1.01	0.999	1.09	1.09
NCI-H2170	0.925	0.926	0.875	0.917	1.08	0.994	0.987	0.836	0.794	0.903	0.563	0.661	0.567	0.583	0.589	0.839	1.07	0.902	0.93	0.925
NCI-H2342	0.789	0.751	0.703	0.881	0.794	0.856	0.734	0.811	0.772	0.843	0.43	0.441	0.359	0.486	0.463	0.415	0.516	0.472	0.52	0.493
NCI-H2347	0.257	0.292	0.427	0.279	0.318	0.301	0.335	0.24	0.293	0.221	0.58	0.587	0.553	0.659	0.611	0.684	0.792	0.728	0.67	0.652
NCI-H2405	0.635	0.56	0.513	0.594	0.576		0.604	0.544	0.567	0.601	0.83	0.938	0.959	0.975	0.91	0.744	0.875	0.887	0.819	0.605
NCI-H3122	0.217	0.212	0.255	0.217	0.267	0.254	0.296	0.25	0.213	0.286	0.651	0.652	0.637	0.678	0.68	0.682	1.04	1.03	1.12	1.06
PC-3 [JPC-3]	0.756		0.626	0.762	0.741		0.648		0.614	0.487	1.08	1.15	1.17	1.11	1.06	0.799	0.899	0.828	0.847	0.812
PC-14	0.763	0.789	0.879	0.759	1.04	0.731	0.654	0.547	0.319	0.383	0.279	0.433	0.235	0.225	0.187	0.262	0.419	0.328	0.334	0.292
RERF-LC-KJ	0.952	0.91	0.875	0.833	0.966	0.861	0.774	0.693	0.747	0.586	0.873	0.928	0.896	0.976	0.782	0.996	0.957	0.967	0.982	0.888
SW 900	0.915		0.926	0.687	0.943	0.698	0.801	0.636	0.57	0.723	0.841	1.17	0.804	0.769	0.817	0.559	0.65	0.689	0.552	0.538
